# According to publication PMC9186362, “Design and biological evaluation of substituted 5,7-dihydro-6H-indolo[2,3-c]quinolin-6-one as novel selective Haspin inhibitors” (Journal of Enzyme Inhibition and Medicinal Chemistry, 2022):
# Key:
# [1] = biological target: T1, FYN (Homo sapiens, UniProt P06241); assay: SelectScreen ZLYTE; type: biochemical; conditions: ATP Km, read-out: Percentage of inhibition
# T1 construct: purchased Life Technologies (SelectScreen Whole Panel)
# Method: (§1) We further evaluated the selectivity profile of compound 55 on a larger panel of kinases (SelectScreen Whole Panel, Life Technologies). The inhibition profile of 55, evaluated at 1 μM, is depicted on a dendrogram on Figure 3 where kinases inhibited by a minimum of 80% are shown. A full list of the kinases tested is shown on Table S1 in supplementary information.
# [2] = biological target: T2, PLK1 (Homo sapiens, UniProt P53350); assay: SelectScreen ZLYTE; type: biochemical; conditions: ATP Km, read-out: Percentage of inhibition
# T2 construct: purchased Life Technologies (SelectScreen Whole Panel service)
# Method: as §1
# [3] = biological target: PRKCD (PKC delta) (Homo sapiens, UniProt Q05655); assay: SelectScreen ZLYTE; type: biochemical; conditions: ATP Km, read-out: Percentage of inhibition
# Method: as §1
# [4] = biological target: KIT (Homo sapiens, UniProt P10721); assay: SelectScreen ZLYTE; type: biochemical; conditions: ATP Km, read-out: Percentage of inhibition
# Method: as §1
# [5] = biological target: T3, MARK4 (Homo sapiens, UniProt Q96L34); assay: SelectScreen ZLYTE; type: biochemical; conditions: ATP Km, read-out: Percentage of inhibition
# T3 construct: purchased Life Technologies
# Method: as §1
# [6] = biological target: MAPK14 (p38 alpha) Direct (Homo sapiens, UniProt Q16539); assay: SelectScreen ZLYTE; type: biochemical; conditions: ATP Km, read-out: Percentage of inhibition
# Method: as §1
# [7] = biological target: CAMK2A (CaMKII alpha) (Homo sapiens, UniProt Q9UQM7); assay: SelectScreen ZLYTE; type: biochemical; conditions: ATP Km, read-out: Percentage of inhibition
# Method: as §1
# [8] = biological target: T4, GRK4 (Homo sapiens, UniProt P32298); assay: SelectScreen ZLYTE; type: biochemical; conditions: ATP Km, read-out: Percentage of inhibition
# T4 construct: purchased Life Technologies
# Method: as §1
# [9] = biological target: AKT1 (PKB alpha) (Homo sapiens, UniProt P31749); assay: SelectScreen ZLYTE; type: biochemical; conditions: ATP Km, read-out: Percentage of inhibition
# Method: as §1
# [10] = biological target: T5, CDKL5 (Homo sapiens, UniProt O76039); assay: SelectScreen ZLYTE; type: biochemical; conditions: ATP Km, read-out: Percentage of inhibition
# T5 construct: purchased Life Technologies
# Method: as §1
# [11] = biological target: IRAK4 (Homo sapiens, UniProt Q9NWZ3); assay: SelectScreen ZLYTE; type: biochemical; conditions: ATP Km, read-out: Percentage of inhibition
# Method: as §1
# [12] = biological target: CHEK1 (CHK1) (Homo sapiens, UniProt O14757); assay: SelectScreen ZLYTE; type: biochemical; conditions: ATP Km, read-out: Percentage of inhibition
# Method: as §1
# [13] = biological target: EGFR (ErbB1) T790M L858R (Homo sapiens, UniProt P00533, L858R/T790M); assay: SelectScreen ZLYTE; type: biochemical; conditions: ATP Km, read-out: Percentage of inhibition
# Method: as §1
# [14] = biological target: T6, ABL1 (Homo sapiens, UniProt P00519); assay: SelectScreen ZLYTE; type: biochemical; conditions: ATP Km, read-out: Percentage of inhibition
# T6 construct: purchased Life Technologies (SelectScreen Whole Panel service)
# Method: as §1
# [15] = biological target: T7, EGFR (ErbB1) C797S (Homo sapiens, UniProt P00533, C797S); assay: SelectScreen ZLYTE; type: biochemical; conditions: ATP Km, read-out: Percentage of inhibition
# T7 construct: purchased Life Technologies
# Method: as §1
# [16] = biological target: T8, GRK6 (Homo sapiens, UniProt P43250); assay: SelectScreen ZLYTE; type: biochemical; conditions: ATP Km, read-out: Percentage of inhibition
# T8 construct: purchased Life Technologies
# Method: as §1
# [17] = biological target: T9, AKT3 (PKB gamma) (Homo sapiens, UniProt Q9Y243); assay: SelectScreen ZLYTE; type: biochemical; conditions: ATP Km, read-out: Percentage of inhibition
# T9 construct: purchased Life Technologies
# Method: as §1
# [18] = biological target: T10, ADRBK1 (GRK2) (Homo sapiens, UniProt P25098); assay: SelectScreen ZLYTE; type: biochemical; conditions: ATP Km, read-out: Percentage of inhibition
# T10 construct: purchased Life Technologies (SelectScreen Whole Panel)
# Method: as §1
# [19] = biological target: SRPK2 (Homo sapiens, UniProt P78362); assay: SelectScreen ZLYTE; type: biochemical; conditions: ATP Km, read-out: Percentage of inhibition
# Method: as §1
# [20] = biological target: T11, MAP3K8 (COT) (Homo sapiens, UniProt P41279); assay: SelectScreen ZLYTE; type: biochemical; conditions: ATP 100 µM, read-out: Percentage of inhibition
# T11 construct: purchased Life Technologies (SelectScreen service)
# Method: as §1
# [21] = biological target: CSF1R (FMS) (Homo sapiens, UniProt P07333); assay: SelectScreen ZLYTE; type: biochemical; conditions: ATP Km, read-out: Percentage of inhibition
# Method: as §1
# [22] = biological target: T12, MAP4K2 (GCK) (Homo sapiens, UniProt Q12851); assay: SelectScreen ZLYTE; type: biochemical; conditions: ATP Km, read-out: Percentage of inhibition
# T12 construct: purchased Life Technologies (SelectScreen Whole Panel service)
# Method: as §1
# [23] = biological target: T13, KIT V559D (Homo sapiens, UniProt P10721, V559D); assay: SelectScreen ZLYTE; type: biochemical; conditions: ATP Km, read-out: Percentage of inhibition
# T13 construct: purchased Life Technologies
# Method: as §1
# [24] = biological target: T14, ABL1 E255K (Homo sapiens, UniProt P00519, E255K); assay: SelectScreen ZLYTE; type: biochemical; conditions: ATP Km, read-out: Percentage of inhibition
# T14 construct: purchased Life Technologies
# Method: as §1
# [25] = biological target: T15, RET V804L (Homo sapiens, UniProt P07949, V804L); assay: SelectScreen ZLYTE; type: biochemical; conditions: ATP Km, read-out: Percentage of inhibition
# T15 construct: purchased Life Technologies
# Method: as §1
# [26] = biological target: T16, JAK2 (Homo sapiens, UniProt O60674); assay: SelectScreen ZLYTE; type: biochemical; conditions: ATP Km, read-out: Percentage of inhibition
# T16 construct: purchased Life Technologies (SelectScreen Whole Panel)
# Method: as §1
# [27] = biological target: PRKCB2 (PKC beta II) (Homo sapiens, UniProt P05771); assay: SelectScreen ZLYTE; type: biochemical; conditions: ATP Km, read-out: Percentage of inhibition
# Method: as §1
# [28] = biological target: T17, EGFR (ErbB1) (Homo sapiens, UniProt P00533); assay: SelectScreen ZLYTE; type: biochemical; conditions: ATP Km, read-out: Percentage of inhibition
# T17 construct: purchased Life Technologies
# Method: as §1
# [29] = biological target: T18, PDK1 Direct (Homo sapiens, UniProt O15530); assay: SelectScreen ZLYTE; type: biochemical; conditions: ATP Km, read-out: Percentage of inhibition
# T18 construct: purchased Life Technologies (SelectScreen Whole Panel service)
# Method: as §1
# [30] = biological target: T19, GRK5 (Homo sapiens, UniProt P34947); assay: SelectScreen ZLYTE; type: biochemical; conditions: ATP Km, read-out: Percentage of inhibition
# T19 construct: purchased Life Technologies (SelectScreen Whole Panel service)
# Method: as §1
# [31] = biological target: T20, LYN A (Homo sapiens, UniProt P07948); assay: SelectScreen ZLYTE; type: biochemical; conditions: ATP Km, read-out: Percentage of inhibition
# T20 construct: purchased Life Technologies (SelectScreen Whole Panel)
# Method: as §1
# [32] = biological target: T21, CAMK2D (CaMKII delta) (Homo sapiens, UniProt Q13557); assay: SelectScreen ZLYTE; type: biochemical; conditions: ATP Km, read-out: Percentage of inhibition
# T21 construct: purchased Life Technologies (SelectScreen Whole Panel)
# Method: as §1
# [33] = system: U-2 OS cell line; assay: Cell viability MTS assay, dose-response; type: cell-based; conditions: Homo sapiens, U2OS; 48 h, MTS assay in triplicate, doses up to 50 µM
# Method: (§2) HCT116 cells were cultured in McCoy’s medium. SH-SY5Y, MDA-MB231 and U-2 OS cells were cultured in Dulbecco's modified Eagle's medium (DMEM) and hTERT RPE-1 cells in DMEM:F12 medium. All media were supplemented with 10% foetal calf serum and cells were cultured at 37 °C in a 5% CO2 humidified atmosphere.
# (§3) Cell viability was then assessed using the CellTiter96 AQueous cell proliferation assay from Promega according to the manufacturer’s instructions. Each experiment was done in triplicate and EC50 were determined from the dose-response curves according to the signal given by the control (0.1% DMSO) set at 100% viability using Prism GraphPad software.
# [34] = system: RPE1 cell line; assay: Cell viability MTS assay, dose-response; type: cell-based; conditions: Homo sapiens, RPE-1; 48 h, MTS assay in triplicate, doses up to 50 µM
# Method: as §2, §3
# T11 sequence (P41279 whole entry): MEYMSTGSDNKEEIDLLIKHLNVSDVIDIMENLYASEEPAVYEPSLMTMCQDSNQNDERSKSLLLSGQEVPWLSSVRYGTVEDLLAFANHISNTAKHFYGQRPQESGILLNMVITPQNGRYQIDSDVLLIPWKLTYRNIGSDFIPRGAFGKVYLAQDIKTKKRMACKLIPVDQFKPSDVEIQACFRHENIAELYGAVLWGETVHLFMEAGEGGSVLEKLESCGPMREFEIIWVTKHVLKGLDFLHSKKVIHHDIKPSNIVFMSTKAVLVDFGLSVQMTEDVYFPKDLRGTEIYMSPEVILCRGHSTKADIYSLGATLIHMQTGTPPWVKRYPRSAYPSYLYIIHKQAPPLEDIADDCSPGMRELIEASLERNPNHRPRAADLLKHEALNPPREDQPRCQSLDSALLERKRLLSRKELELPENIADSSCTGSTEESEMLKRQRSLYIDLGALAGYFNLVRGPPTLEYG
# T3 sequence (Q96L34 whole entry): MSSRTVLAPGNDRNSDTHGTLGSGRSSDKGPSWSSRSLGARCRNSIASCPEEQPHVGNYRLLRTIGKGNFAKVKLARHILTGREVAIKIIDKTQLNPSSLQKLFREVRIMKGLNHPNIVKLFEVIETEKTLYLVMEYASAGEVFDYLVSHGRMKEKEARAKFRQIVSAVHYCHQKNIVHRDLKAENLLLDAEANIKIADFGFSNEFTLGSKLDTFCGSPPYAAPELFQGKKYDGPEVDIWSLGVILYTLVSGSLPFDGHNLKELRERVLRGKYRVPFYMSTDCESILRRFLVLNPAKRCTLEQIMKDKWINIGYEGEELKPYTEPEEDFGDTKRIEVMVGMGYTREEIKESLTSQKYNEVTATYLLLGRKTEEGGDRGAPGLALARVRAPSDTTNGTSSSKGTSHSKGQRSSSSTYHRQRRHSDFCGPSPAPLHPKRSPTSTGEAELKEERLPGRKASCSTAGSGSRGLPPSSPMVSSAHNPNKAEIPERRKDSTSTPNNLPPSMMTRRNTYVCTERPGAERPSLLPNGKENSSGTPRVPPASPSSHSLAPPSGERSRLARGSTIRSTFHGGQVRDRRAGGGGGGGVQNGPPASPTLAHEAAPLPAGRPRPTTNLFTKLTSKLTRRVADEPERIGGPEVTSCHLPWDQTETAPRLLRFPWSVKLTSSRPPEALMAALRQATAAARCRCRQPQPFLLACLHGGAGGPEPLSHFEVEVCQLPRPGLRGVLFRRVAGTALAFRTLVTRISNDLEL
# Chain of MAPK14 (p38 alpha) Direct (Q16539 whole entry): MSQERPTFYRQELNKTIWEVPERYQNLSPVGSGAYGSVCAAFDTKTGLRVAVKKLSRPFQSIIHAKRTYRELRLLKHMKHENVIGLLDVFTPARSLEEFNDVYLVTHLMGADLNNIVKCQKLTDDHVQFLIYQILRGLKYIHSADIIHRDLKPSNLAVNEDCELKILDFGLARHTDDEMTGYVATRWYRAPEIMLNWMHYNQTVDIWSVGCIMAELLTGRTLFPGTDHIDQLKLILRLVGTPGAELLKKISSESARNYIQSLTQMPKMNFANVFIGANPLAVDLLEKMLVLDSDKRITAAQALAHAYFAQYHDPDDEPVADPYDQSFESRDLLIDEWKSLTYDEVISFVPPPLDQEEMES
# T5 sequence (O76039 whole entry): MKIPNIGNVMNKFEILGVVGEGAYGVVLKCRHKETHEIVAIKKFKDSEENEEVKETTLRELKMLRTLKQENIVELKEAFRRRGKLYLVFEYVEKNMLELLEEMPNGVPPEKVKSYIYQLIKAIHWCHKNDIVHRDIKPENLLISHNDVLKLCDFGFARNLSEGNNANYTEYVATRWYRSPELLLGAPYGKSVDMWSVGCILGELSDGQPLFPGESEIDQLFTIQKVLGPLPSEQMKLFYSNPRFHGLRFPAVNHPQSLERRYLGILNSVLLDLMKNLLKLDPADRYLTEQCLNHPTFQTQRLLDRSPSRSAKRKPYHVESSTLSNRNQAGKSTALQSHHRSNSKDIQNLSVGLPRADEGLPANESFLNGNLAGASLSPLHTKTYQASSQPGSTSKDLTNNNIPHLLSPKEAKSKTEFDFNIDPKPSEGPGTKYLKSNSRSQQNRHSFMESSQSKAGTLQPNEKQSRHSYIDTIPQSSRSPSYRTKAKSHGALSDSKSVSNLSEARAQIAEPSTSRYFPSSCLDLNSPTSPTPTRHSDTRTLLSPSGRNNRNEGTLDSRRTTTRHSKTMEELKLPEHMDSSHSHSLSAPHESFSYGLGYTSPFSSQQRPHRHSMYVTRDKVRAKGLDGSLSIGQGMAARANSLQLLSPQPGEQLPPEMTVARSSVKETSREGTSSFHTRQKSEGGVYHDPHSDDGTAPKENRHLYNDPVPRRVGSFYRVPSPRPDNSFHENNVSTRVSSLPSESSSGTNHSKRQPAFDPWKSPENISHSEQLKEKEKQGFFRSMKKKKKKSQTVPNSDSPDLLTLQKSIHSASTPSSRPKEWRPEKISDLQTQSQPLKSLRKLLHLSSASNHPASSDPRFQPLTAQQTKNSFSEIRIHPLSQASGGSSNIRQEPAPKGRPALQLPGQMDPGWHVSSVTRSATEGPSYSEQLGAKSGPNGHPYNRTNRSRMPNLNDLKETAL
# T20 sequence (P07948 whole entry): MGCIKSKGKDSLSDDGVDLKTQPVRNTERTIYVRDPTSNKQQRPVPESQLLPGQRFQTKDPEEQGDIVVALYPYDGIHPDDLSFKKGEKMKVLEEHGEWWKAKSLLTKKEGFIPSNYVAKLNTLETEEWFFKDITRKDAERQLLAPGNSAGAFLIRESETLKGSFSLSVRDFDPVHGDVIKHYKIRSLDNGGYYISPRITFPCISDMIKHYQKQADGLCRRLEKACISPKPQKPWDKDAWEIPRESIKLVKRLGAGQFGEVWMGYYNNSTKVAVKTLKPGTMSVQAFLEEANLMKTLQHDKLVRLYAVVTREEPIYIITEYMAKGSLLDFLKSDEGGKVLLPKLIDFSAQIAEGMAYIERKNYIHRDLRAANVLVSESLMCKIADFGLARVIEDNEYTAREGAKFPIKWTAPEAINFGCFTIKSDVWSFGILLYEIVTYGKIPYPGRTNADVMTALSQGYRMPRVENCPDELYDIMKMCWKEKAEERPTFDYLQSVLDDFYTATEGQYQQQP
# Chain of KIT (P10721 26-976): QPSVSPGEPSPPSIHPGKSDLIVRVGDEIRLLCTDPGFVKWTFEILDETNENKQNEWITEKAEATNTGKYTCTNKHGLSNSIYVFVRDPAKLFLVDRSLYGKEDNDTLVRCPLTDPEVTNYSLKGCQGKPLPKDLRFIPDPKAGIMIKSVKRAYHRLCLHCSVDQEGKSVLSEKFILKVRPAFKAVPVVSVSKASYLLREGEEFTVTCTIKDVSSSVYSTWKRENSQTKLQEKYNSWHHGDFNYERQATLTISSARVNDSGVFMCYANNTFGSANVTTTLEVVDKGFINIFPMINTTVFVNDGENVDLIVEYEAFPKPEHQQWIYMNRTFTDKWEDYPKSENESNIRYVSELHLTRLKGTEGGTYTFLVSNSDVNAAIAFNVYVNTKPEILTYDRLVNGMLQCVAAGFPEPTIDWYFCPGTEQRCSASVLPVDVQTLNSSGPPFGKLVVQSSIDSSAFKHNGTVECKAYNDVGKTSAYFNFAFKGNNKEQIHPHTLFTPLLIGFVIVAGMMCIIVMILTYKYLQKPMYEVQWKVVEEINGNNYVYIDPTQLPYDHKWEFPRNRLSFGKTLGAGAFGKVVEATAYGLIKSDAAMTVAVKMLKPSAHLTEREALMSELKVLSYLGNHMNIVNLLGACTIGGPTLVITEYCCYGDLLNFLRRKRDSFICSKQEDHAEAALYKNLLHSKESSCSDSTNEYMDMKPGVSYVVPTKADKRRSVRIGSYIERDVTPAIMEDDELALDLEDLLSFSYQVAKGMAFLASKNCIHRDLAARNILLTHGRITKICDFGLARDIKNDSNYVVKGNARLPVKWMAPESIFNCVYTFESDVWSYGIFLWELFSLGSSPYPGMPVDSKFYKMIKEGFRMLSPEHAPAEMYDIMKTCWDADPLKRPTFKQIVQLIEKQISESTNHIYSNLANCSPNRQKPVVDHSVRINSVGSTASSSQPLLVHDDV
# T21 sequence (Q13557 whole entry): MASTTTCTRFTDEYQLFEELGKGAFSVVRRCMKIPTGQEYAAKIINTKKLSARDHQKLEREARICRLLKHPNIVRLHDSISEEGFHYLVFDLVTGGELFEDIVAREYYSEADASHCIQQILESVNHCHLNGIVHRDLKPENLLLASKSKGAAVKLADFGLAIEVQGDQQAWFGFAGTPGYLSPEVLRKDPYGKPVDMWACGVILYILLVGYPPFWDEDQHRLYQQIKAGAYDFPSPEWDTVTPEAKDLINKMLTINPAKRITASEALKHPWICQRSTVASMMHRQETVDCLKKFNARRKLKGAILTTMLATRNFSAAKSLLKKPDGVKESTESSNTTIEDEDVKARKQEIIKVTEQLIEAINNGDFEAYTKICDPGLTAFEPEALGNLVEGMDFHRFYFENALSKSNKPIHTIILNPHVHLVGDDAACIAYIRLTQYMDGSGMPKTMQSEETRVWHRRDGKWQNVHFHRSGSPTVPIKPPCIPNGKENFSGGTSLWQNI
# T13 sequence (P10721 26-976 V559D): as the sequence (P10721 26-976) above, with V534D counted along it
# Chain of IRAK4 (Q9NWZ3 whole entry): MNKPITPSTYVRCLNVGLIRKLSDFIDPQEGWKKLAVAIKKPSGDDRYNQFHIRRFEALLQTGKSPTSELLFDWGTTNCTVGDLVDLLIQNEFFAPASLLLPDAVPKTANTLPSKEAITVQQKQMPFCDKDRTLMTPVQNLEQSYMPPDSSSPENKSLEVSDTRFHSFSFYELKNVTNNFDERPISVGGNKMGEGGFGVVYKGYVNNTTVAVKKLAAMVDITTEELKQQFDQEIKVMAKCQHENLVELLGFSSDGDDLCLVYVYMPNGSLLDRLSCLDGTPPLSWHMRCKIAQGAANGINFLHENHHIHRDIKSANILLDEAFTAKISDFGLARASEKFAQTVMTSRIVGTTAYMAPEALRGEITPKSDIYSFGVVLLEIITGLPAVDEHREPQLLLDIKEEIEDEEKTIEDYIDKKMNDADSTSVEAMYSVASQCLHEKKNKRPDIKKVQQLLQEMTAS
structure (smiles),measurement,setting,value
"COc1ccc2[nH]c3c(=O)[nH]c4ccc(O)cc4c3c2c1 [Compound 55, 2-Hydroxy-10-methoxy-5,7-dihydro-6H-indolo[2,3-c]quinolin-6-one]",inhibition at 1 µM,[1],49%
same,inhibition at 1 µM,[2],10%
same,inhibition at 1 µM,[3],7%
same,inhibition at 1 µM,[4],6%
same,inhibition at 1 µM,[5],31%
same,inhibition at 1 µM,[6],6%
same,inhibition at 1 µM,[7],20%
same,inhibition at 1 µM,[8],42%
same,inhibition at 1 µM,[9],6%
same,inhibition at 1 µM,[10],5%
same,inhibition at 1 µM,[11],61%
same,inhibition at 1 µM,[12],19%
same,inhibition at 1 µM,[13],20%
same,inhibition at 1 µM,[14],43%
same,inhibition at 1 µM,[15],4%
same,inhibition at 1 µM,[16],32%
same,inhibition at 1 µM,[17],3%
same,inhibition at 1 µM,[18],-3%
same,inhibition at 1 µM,[19],6%
same,inhibition at 1 µM,[20],91%
same,inhibition at 1 µM,[21],63%
same,inhibition at 1 µM,[22],47%
same,inhibition at 1 µM,[23],37%
same,inhibition at 1 µM,[24],39%
same,inhibition at 1 µM,[25],98%
same,inhibition at 1 µM,[26],54%
same,inhibition at 1 µM,[27],13%
same,inhibition at 1 µM,[28],4%
same,inhibition at 1 µM,[29],17%
same,inhibition at 1 µM,[30],18%
same,inhibition at 1 µM,[31],49%
same,inhibition at 1 µM,[32],50%
same,EC50,[33],3.4 µM
same,EC50,[34],10.7 µM
